Assay [1] concerns the target T1, transactivation domain of HPV11 E2 (TAD) (Human papillomavirus 11, UniProt P04015).
T1 construct: HPV11 E2 amino acids 2* -215 (*Met-1 removed); made in house; host or cells: E. coli BL21 (DE3)pLysS, plasmid pET23a(+)
The assay is described as follows: HPV E2 transactivation domain (TAD) ligand displacement assay. Type of assay: binding. From the text: This assay measures the binding of a radiolabeled compound (“probe”) to the transactivation domain of HPV11 E2 (TAD). The protein binds to Ni-coated Flash plates, and the measured signal being proportional to the concentration of bound probe. If a test compound binds to the TAD, it will displace the probe, which will result in a lower signal.
(§1) HPV-11 TAD: HPV11 E2 amino acids 2* -215 (*Met-1 removed) with an amino terminal epitope tag derived from the T7 phage gene 10 protein and a C-terminal His tag (SEQ ID NO.2). Total MW is 27 kDa.
25 mM MOPS, pH 7.0; 100 mM NaCl; 1 mM DTT; 0.0025% Tween-20. The pH was verified before adding DTT and Tween, and was adjusted where necessary. […]
TAD was diluted to 300 nM in assay buffer and used 20 μL […] dilution per well. […] This has a measurable effect on signal: background but little effect on z′ or measured inhibition (J.-H. Zhang, et al., 1999, J. Biomolecular Screening v4(2), 67-73). […]
The assay was performed in 96-well FlashPlates (PE/NEN). […] Plates were then sealed with TopCount-compatible sealing film, shaken briefly, incubated at room temperature, then counted on the TopCount after 3 hrs and again at 20 hrs.
The assay was run as described in Example 6. For each inhibitor concentration, the percent inhibition observed was calculated and the resulting inhibition curve was fit to a logistic using SAS. […]

Assay [2] has as its target T1, transactivation domain of HPV11 E2 (TAD). Put plainly: isothermal titration calorimetry of probe binding to the TAD. To be noted: isothermal titration calorimetry with its non-tritiated homolog. The procedure:
Radiolabeled probe: The tritium labeled probe 1j binds to the TAD with a Kd of 40 nM, as determined by isothermal titration calorimetry with its non-tritiated homolog.
as §1
A general note: ITC needs no label: the signal is the heat of the interaction.

T1 sequence (P04015 2-215): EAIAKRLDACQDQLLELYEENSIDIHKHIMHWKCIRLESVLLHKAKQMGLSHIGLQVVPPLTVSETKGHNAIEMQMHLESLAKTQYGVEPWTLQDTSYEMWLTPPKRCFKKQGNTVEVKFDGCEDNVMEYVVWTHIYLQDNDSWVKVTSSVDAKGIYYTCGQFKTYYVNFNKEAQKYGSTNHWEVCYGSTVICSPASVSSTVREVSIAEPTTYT

With `O=C(Nc1ccc2c(c1)OCO2)C1C(c2ccc(Cl)cc2)OC2(C(=O)c3ccccc3C2=O)C1C(=O)O` (racemic) [Compound 3h], the IC50 was 4 ± 0.6 µM in assay [1] (counting at 20 hours, 50 nM TAD, 25 nM probe, FIG. 5) and approximately 10 µM in assay [1] (standard inhibitor, racemic mixture).
`CC(=O)NCc1ccc(N2C(=O)[C@H]3[C@@H](C2=O)[C@@]2(O[C@H]3c3ccc(Br)c(Br)c3)C(=O)c3cc(C)sc3C2=O)cc1` [Compound 1j]: in assay [2], binding was put at a Kd of 0.04 µM.

For orientation: IC50 means the concentration needed to halve the response being measured. In general, Kd refers to the constant that tells how readily two partners part at equilibrium. A lower Kd goes with tighter binding.

Source of the values: patent US6825176B2, “E2 displacement assay for identifying inhibitors of HPV” (Boehringer Ingelheim (Canada) Ltd., priority 2002, dated 2004).
